In US10111435B2, “Herbicidal compositions containing N-(1,3,4-oxadiazol-2-yl)-aryl carboxylic acid amides” (BAYER CROPSCIENCE AKTIENGESELLSCHAFT, priority 2013, dated 2018):

Experiments:
Assay type in all cases: in vivo
Bromus sterilis (BROST) = assay: greenhouse post-emergence herbicidal efficacy against BROST
Protocol: (§1) All trials whose results are shown were conducted in a greenhouse by the methodology specified below. The effect of the inventive herbicidal compositions was examined on the following harmful plants 14 and 21 days after application:
(§2) Echinochloa crus-galli (ECHCG), Eleusine indica (ELEIN), Setaria viridis (SETVI), Amaranthus retroflexus (AMARE), Chenopodium album (CHEAL), Kochia scoparia (KCHSC), Solanum nigrum (SOLNI), Avena fatua (AVEFA), Bromus sterilis (BROST), Lolium multiflorum (LOLMU), Phalaris minor (PHAMI), Poa annua (POAAN), Galium aparine (GALAP), Matricaria inodora (MATIN) and Polygonum convolvulus (POLCO).
(§3) The harmful plant seeds were sown in pots (diameter 8 cm) with sandy loam soil and germinated under optimal conditions. The inventive herbicidal compositions or the active ingredients alone were applied post-emergence to the planted pots with a spray volume of 300 L/ha. The trial was conducted in a greenhouse under optimum growth conditions. The herbicidal effects were assessed visually by comparison of untreated and treated plants. The percentages mean: 0%=no effects, 100%=the plants die off completely).
(§4) The abbreviations mean: • a.i.=active ingredient • E^C=expected value according to Colby (E^C=A+B−A×B/100) • Diff: =difference (%) of measured value from expected value (%) (measured value minus expected value)
(§5) Assessment: • measured value E is greater than E^C:->synergism (+ diff.) • measured value E equals E^C:->additive effect • measured value E is smaller than E^C:->antagonism(− diff.)

[1] = tested on: Matricaria inodora (MATIN); assay: greenhouse post-emergence herbicidal efficacy against MATIN
Protocol: as §1, §2, §3, §4, §5

Galium aparine (GALAP) = assay: greenhouse post-emergence herbicidal efficacy against GALAP
Protocol: as §1, §2, §3, §4, §5

[2] = tested on: Lolium multiflorum (LOLMU); assay: greenhouse post-emergence herbicidal efficacy against LOLMU
Protocol: as §1, §2, §3, §4, §5

Poa annua (POAAN) = assay: greenhouse post-emergence herbicidal efficacy against POAAN
Protocol: as §1, §2, §3, §4, §5

Avena fatua (AVEFA) = assay: greenhouse post-emergence herbicidal efficacy against AVEFA
Protocol: as §1, §2, §3, §4, §5

Phalaris minor (PHAMI) = assay: greenhouse post-emergence herbicidal efficacy against PHAMI
Protocol: as §1, §2, §3, §4, §5

[3] = tested on: Polygonum convolvulus (POLCO); assay: greenhouse post-emergence herbicidal efficacy against POLCO
Protocol: as §1, §2, §3, §4, §5

[4] = 21 days after application, g of a.i./ha: A1-13 10, indaziflam 10
[5] = 14 days after application, g of a.i./ha: A1-13 2.5, indaziflam 10
[6] = 14 days after application, g of a.i./ha: A1-13 10, indaziflam 40
[7] = 21 days after application, g of a.i./ha: A1-13 2.5, indaziflam 40
[8] = 21 days after application, g of a.i./ha: A1-13 10, indaziflam 40
[9] = 14 days after application, 25 g of a.i./ha
[10] = 21 days after application, g of a.i./ha: A1-14 10, pyrasulfotole 100
[11] = 14 days after application, 100 g of a.i./ha
[12] = 21 days after application, g of a.i./ha: A1-14 2.5, pyrasulfotole 25
[13] = 21 days after application, g of a.i./ha: A1-14 2.5, pyrasulfotole 100
[14] = 21 days after application, g of a.i./ha: A1-14 10, pyrasulfotole 25
[15] = 21 days after application, g of a.i./ha: A1-13 2.5, mesosulfuron-methyl 2.5
[16] = 21 days after application, g of a.i./ha: A1-13 2.5, mesosulfuron-methyl 10
[17] = 21 days after application, g of a.i./ha: A1-13 10, mesosulfuron-methyl 10
[18] = 14 days after application, 2.5 g of a.i./ha
[19] = 14 days after application, 10 g of a.i./ha
[20] = 14 days after application, 80 g of a.i./ha
[21] = 21 days after application, g of a.i./ha: A2-1 50, fluroxypyr 80
[22] = 14 days after application, 20 g of a.i./ha
[23] = 21 days after application, g of a.i./ha: A2-1 12.5, fluroxypyr 20
[24] = 21 days after application, g of a.i./ha: A2-1 50, fluroxypyr 20
[25] = 21 days after application, g of a.i./ha: A2-1 12.5, fluroxypyr 80

Q: With `Cc1ccc2c(c1)[C@H](Nc1nc(N)nc(C(C)F)n1)[C@@H](C)C2` (stereo partly drawn) [indaziflam] as the compound, how does the Efficacy (Bromus sterilis (BROST); [4]) read?
A: 0%

Q: And the Efficacy [1, 5]?
A: 30%

Q: And the Efficacy ([1]; 14 days after application, g of a.i./ha: A1-13 10, indaziflam 10)?
A: 30%

Q: And the Efficacy (Galium aparine (GALAP); [5])?
A: 50%

Q: What about the Efficacy (Galium aparine (GALAP); [6]) of the same compound?
A: 60%

Q: And the “Efficacy against GALAP” value (Galium aparine (GALAP); 21 days after application, dosage 40 g of a.i./ha)?
A: 35%

Q: What about the Efficacy [2, 4] of the same compound?
A: 0%

Q: And the “Efficacy against POAAN” value (Poa annua (POAAN); 21 days after application, dosage 10 g of a.i./ha)?
A: 0%

Q: And the Efficacy (Avena fatua (AVEFA); [7])?
A: 10%

Q: What about the Efficacy (Avena fatua (AVEFA); [8]) of the same compound?
A: 10%

Q: What about the Efficacy (Phalaris minor (PHAMI); 14 days after application, g of a.i./ha: A1-13 2.5, indaziflam 40) of the same compound?
A: 10%

Q: And the Efficacy (Phalaris minor (PHAMI); [6])?
A: 10%

Q: And the Efficacy (Phalaris minor (PHAMI); [7])?
A: 10%

Q: And the Efficacy (Phalaris minor (PHAMI); [8])?
A: 10%

Q: With `Cc1nn(C)c(O)c1C(=O)c1ccc(C(F)(F)F)cc1S(C)(=O)=O` [pyrasulfotole] as the compound, how does the Efficacy (Bromus sterilis (BROST); [9]) read?
A: 0%

Q: And the Efficacy (Bromus sterilis (BROST); [10])?
A: 0%

Q: What about the Efficacy [3, 9] of the same compound?
A: 50%

Q: And the Efficacy [3, 11]?
A: 60%

Q: What about the Efficacy [3, 12] of the same compound?
A: 0%

Q: What about the Efficacy [3, 13] of the same compound?
A: 30%

Q: And the Efficacy [3, 14]?
A: 0%

Q: And the Efficacy [3, 10]?
A: 30%

Q: And the Efficacy [1, 9]?
A: 0%

Q: What about the Efficacy [1, 11] of the same compound?
A: 15%

Q: And the Efficacy [1, 13]?
A: 3%

Q: And the Efficacy (Galium aparine (GALAP); [12])?
A: 40%

Q: And the Efficacy (Galium aparine (GALAP); [14])?
A: 40%

Q: What about the Efficacy [2, 9] of the same compound?
A: 0%

Q: What about the Efficacy [2, 11] of the same compound?
A: 0%

Q: What about the Efficacy (Poa annua (POAAN); [9]) of the same compound?
A: 0%

Q: What about the Efficacy (Poa annua (POAAN); [11]) of the same compound?
A: 0%

Q: And the Efficacy (Poa annua (POAAN); [12])?
A: 0%

Q: What about the Efficacy (Poa annua (POAAN); [13]) of the same compound?
A: 0%

Q: And the Efficacy (Phalaris minor (PHAMI); [9])?
A: 0%

Q: What about the Efficacy (Phalaris minor (PHAMI); [11]) of the same compound?
A: 5%

Q: What about the Efficacy (Phalaris minor (PHAMI); [12]) of the same compound?
A: 0%

Q: And the Efficacy (Phalaris minor (PHAMI); [13])?
A: 0%

Q: What does the source list for `COC(=O)c1ccc(CNS(C)(=O)=O)cc1S(=O)(=O)NC(=O)Nc1nc(OC)cc(OC)n1` [mesosulfuron-methyl]?
A: Efficacy (Bromus sterilis (BROST); [15]): 0%; Efficacy (Bromus sterilis (BROST); [16]): 0%; Efficacy (Bromus sterilis (BROST); [17]): 0%; Efficacy [3, 16]: 0%; Efficacy [3, 17]: 0%; Efficacy [1, 18]: 0%; Efficacy [1, 19]: 0%; Efficacy (Galium aparine (GALAP); [18]): 30%; Efficacy (Galium aparine (GALAP); [19]): 30%; Efficacy [2, 17]: 15%; Efficacy (Poa annua (POAAN); [18]): 15%; Efficacy (Poa annua (POAAN); [19]): 40%; Efficacy (Poa annua (POAAN); [16]): 40%; Efficacy (Avena fatua (AVEFA); [19]): 5%; Efficacy (Avena fatua (AVEFA); [16]): 0%; Efficacy (Avena fatua (AVEFA); [17]): 0%; Efficacy (Phalaris minor (PHAMI); [18]): 0%; Efficacy (Phalaris minor (PHAMI); [19]): 5%; Efficacy (Phalaris minor (PHAMI); [15]): 0%; Efficacy (Phalaris minor (PHAMI); [16]): 5%; Efficacy (Phalaris minor (PHAMI); [17]): 5%

Q: What does the source list for `Nc1c(Cl)c(F)nc(OCC(=O)O)c1Cl` [fluroxypyr]?
A: Efficacy (Bromus sterilis (BROST); [20]): 0%; Efficacy (Bromus sterilis (BROST); [21]): 0%; Efficacy [3, 22]: 70%; Efficacy [3, 23]: 80%; Efficacy [3, 24]: 80%; Efficacy [1, 23]: 20%; Efficacy [1, 25]: 50%; Efficacy [1, 24]: 20%; Efficacy [1, 21]: 50%; Efficacy [2, 20]: 0%; Efficacy [2, 21]: 0%; Efficacy (Poa annua (POAAN); [22]): 0%; Efficacy (Poa annua (POAAN); [23]): 0%; Efficacy (Poa annua (POAAN); [25]): 10%; Efficacy (Avena fatua (AVEFA); [20]): 0%; Efficacy (Avena fatua (AVEFA); [25]): 0%; Efficacy (Avena fatua (AVEFA); [21]): 0%; Efficacy (Phalaris minor (PHAMI); [20]): 15%; Efficacy (Phalaris minor (PHAMI); [25]): 0%; Efficacy (Phalaris minor (PHAMI); [21]): 0%
